This data set can be described thus: gradient 5% acetonitrile 3 min, to 50% in 2 min, to 85% in 15 min, held 3 min, 100 µL/min. The settings on record: column: Zorbax Extend-C18 2.1 x 50 mm; eluents: water / acetonitrile, 0.1% formic acid. The procedure, abridged:
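Each retention time is based on an adduct peak selected computationally and verified by manual inspection. Measurements used HPLC–quadrupole time-of-flight mass spectrometry in positive and negative ionization mode on mixtures of ~100 pure standards. Chromatography ran on a Zorbax Extend-C18 column (2.1 × 50 mm, 1.8 μm) at 100 μL/min with water and acetonitrile, each containing 0.1% formic acid, and dead and dwell volumes of 40 μL and 900 μL.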
With `Cc1ccsc1C(=O)Nc1nnc(SCc2nnc(-c3ccc4c(c3)OCO4)o2)s1`, the RP-LC retention time amounted to 884 s. Turning to `CCOc1ccccc1NC(=O)N1CCCC1c1nc(-c2ccc(F)cc2F)no1` (centres undefined), the RP-LC retention time worked out at 1100 s. In turn, `COc1cc(NC(=O)c2sc(-n3cccc3)nc2C(C)C)cc(OC)c1` yielded an RP-LC retention time of 1210 s. `O=C(NC1CCCCCC1)C1CCN(C(=O)C2Sc3ccccc3NC2=O)CC1` (centres undefined): the RP-LC retention time was 613 s.

Consider `O=C(c1ccncc1)N1CCCn2nc(-c3ccc(Cl)cc3)cc2C1`, for which the RP-LC retention time is 719 s.

Consider `CCOC(=O)N1CCN(C(=O)c2ccc(S(=O)(=O)NCc3cccs3)o2)CC1`, for which the RP-LC retention time stood at 729 s. The same measure for `O=C(Nc1cccnc1)c1cccc([N+](=O)[O-])c1`: 661 s. The same measure for `O=C(CN1CCN(Cc2ccc(F)cc2Cl)C1=O)NC1CC1`: 692 s; for `Cc1cc(C)c2c(-n3cccc3)nn(CC(=O)NC3CCCCCC3)c2n1`: 1050 s; for `O=C(CCc1c(-c2ccc(F)cc2)nc2ccccn12)Nc1cccc(Br)c1`: 730 s. The same measure for `Cc1cc(C)c(S(=O)(=O)N2CCN(Cc3cccc(F)c3)C3(CCOCC3)C2)cc1C`: 974 s; for `COCCN1C(=O)[C@H]2CN(Cc3ccc(F)cc3Cl)C[C@H]2C1=O`: 693 s. With `Cc1ccc(CNC(=O)C2(C)CCN(C(=O)c3ccccc3C(F)(F)F)CC2)cc1`, the RP-LC retention time stood at 894 s. The same measure for `O=C(CCCc1ccccc1)Nc1ccc2c(c1)CCC(=O)N2`: 724 s. The same measure for `CCOC(=O)Cn1c(C2CC(=O)N(Cc3ccc(F)cc3)C2)nc2ccccc21` (centres undefined): 764 s; for `Cn1c(COc2ccc(Cl)cc2)nc2ccccc21`: 647 s. For `O=C(NCc1ccc2c(c1)OCO2)C1CCCN(c2nnc3c(Cl)cccn23)C1` (centres undefined), the RP-LC retention time came out at 701 s. The same measure for `CSc1ccc(-c2nc3ccccn3c2Nc2ccc(C)cc2)cc1`: 781 s.

`N#Cc1ccc(N2C=C(C(=O)N3CCCC3)S(=O)(=O)c3ccc(Cl)cc32)cc1`: the RP-LC retention time worked out at 799 s. The same measure for `O=C(NCCc1csc(-c2cccs2)n1)C1CCN(S(=O)(=O)c2cccs2)CC1`: 852 s; for `CCN1C[C@]2(COC)CC[C@H](OC)[C@]34C5C[C@@H]6[C@@H](OC)C[C@@]7(OCOC7(C13)[C@@H](O)C24)C5[C@H]6OC` (some centres undefined): 614 s; for `COc1ccc(OC)c(S(=O)(=O)N2C[C@@H](F)C[C@H]2C(=O)N2CCc3ccccc3C2)c1`: 829 s.

Take `O=C(Nc1nc2c(s1)CN(C(=O)c1cnn(-c3ccccc3)n1)CC2)C1CCCO1` (centres undefined): the RP-LC retention time stood at 762 s. `CCOC(=O)N1CCN(c2cnc3cc(S(=O)(=O)N4CCCCC4)ccc3n2)CC1` gave an RP-LC retention time of 891 s.

`CCCNC(=O)CCc1c(C)c(C(=O)OCC)c(C)n1C` showed an RP-LC retention time of 779 s. The same measure for `O=C(Cc1nnc(-c2ccc3ncccc3c2)o1)N1CCN(C2CCCCC2)CC1`: 574 s; for `COc1cccc(-c2cn3ccn(-c4ccc(F)c(Cl)c4)c(=O)c3n2)c1`: 859 s; for `CC(C)Cc1cc(-c2nn3c(Cc4ccc(Cl)cc4)nnc3s2)n[nH]1`: 1010 s. As for `C#CCOCC1CCCN(S(=O)(=O)Cc2ccccc2)C1` (centres undefined), the RP-LC retention time was determined as 840 s. The same measure for `O=S(=O)(Oc1ccc(Cl)cc1)c1cccc2cccnc12`: 1050 s.

The compound `CN(C)c1cccc(-c2nc(-c3ccc4c(c3)nnn4CCC(=O)N3CCCC3)no2)c1` returned an RP-LC retention time of 990 s. Consider `CCOc1ccc(-n2cc(C(=O)O)nn2)cc1`, for which the RP-LC retention time was 686 s. In turn, `Cn1c(=O)sc2cc(S(=O)(=O)N3CCC(C(=O)NCCN4CCCCCC4)CC3)ccc21` yielded an RP-LC retention time of 623 s. The same measure for `COc1ccc(NC(=O)Cn2c(=O)n(-c3ccc(C)cc3)c(=O)c3c2cc(C)n3C)cc1Cl`: 891 s. Turning to `Cc1cc(=O)n(CC(=O)Nc2ccccc2)c(N)n1`, the RP-LC retention time was 580 s.

`COc1ccc(-c2ncc3c(n2)CCN(C(=O)Nc2cccc(C(C)=O)c2)C3)cc1`: the RP-LC retention time is 810 s.

Compound `COc1ccc(NC(=O)N2CCC3(CC2)CN(c2ccccc2)C3=O)cc1OC` yielded an RP-LC retention time of 771 s. Compound `CCOc1cc(CNC(=O)C2=Cc3cc(OC)ccc3OC2)ccc1OC` yielded an RP-LC retention time of 873 s. The same measure for `CN1C(=O)c2cccnc2Sc2cc(NC(=O)c3ccsc3)ccc21`: 725 s. The same measure for `COc1ccc(-c2ncc3c(n2)CCN(S(=O)(=O)c2ccccc2Cl)C3)cc1`: 1070 s; for `CSc1ccc(CNC(=O)CN2CC=C(c3cnn(-c4ccccc4)c3)CC2)cc1`: 720 s. The same measure for `Cc1ccc(-c2noc(-c3ccc(N4CCN(c5ncccn5)CC4)nc3)n2)cc1`: 1280 s; for `CCOC(=O)CNC(=O)NCc1cccn1Cc1ccccc1F`: 772 s; for `COCCN1C(=O)CC[C@]2(C(=O)NCc3ccc(OC)cc3OC)CCCC[C@@H]12`: 698 s.

With `CCOc1ccc(NC(=O)N2CCN(c3ccc(=O)n(-c4ccc(C)cc4)n3)CC2)cc1`, the RP-LC retention time was determined as 802 s.

`COc1ccc(Cl)cc1N1CC(c2nc3ccccc3n2CCN2CCOCC2)CC1=O` (centres undefined) gave an RP-LC retention time of 617 s.

For the compound `O=C(NC1CC1)C1CCN(c2nc3ccc(-c4cccc(F)c4)nc3s2)CC1`, the RP-LC retention time was determined as 918 s. The same measure for `O=C(c1ccco1)N1N=C(c2ccco2)CC1c1ccc2nccnc2c1` (centres undefined): 718 s; for `CCN(CC)c1nc(C(=O)Nc2ccccc2OC)nc2nc(C)cc(C)c12`: 732 s; for `CCOc1ccc(-c2cc3c(=O)n(Cc4nc(-c5cccc(Br)c5)no4)ncn3n2)cc1`: 1280 s. The same measure for `COC(=O)c1ccc(Nc2c(C(=O)N3CCCC3)cnc3nc(C)ccc23)cc1`: 598 s. The same measure for `Cc1nc(-c2cn(C)c3ncccc23)sc1C(=O)NCc1ccccc1`: 863 s; for `Cc1noc2nc(C)n(CC(=O)NC(C)c3ccccc3)c(=O)c12` (centres undefined): 756 s. Compound `CCCNC(=O)c1sc(Nc2ccc(Br)cn2)nc1C` showed an RP-LC retention time of 802 s.

The compound `CCC1CCCCN1S(=O)(=O)c1cc(-c2cc(C)[nH]n2)sc1C` (centres undefined) registered an RP-LC retention time of 958 s. The compound `COc1ccc(OC)c(S(=O)(=O)N2CCC(n3cnnc3C)CC2)c1` registered an RP-LC retention time of 652 s. `CCOC(Cn1c(-c2ccc(OC)cc2)nc2ccccc21)OCC`: the RP-LC retention time is 713 s. The same measure for `CCCn1ccc2sc(C)c(C(=O)NCc3cccc(OC)c3)c2c1=O`: 856 s; for `Cn1cc(CCNC(=O)NCc2ccco2)c2cccnc21`: 593 s.

The values are drawn from the METLIN SMRT retention time set (Domingo-Almenara et al. 2019).
